Results: publication PMC12723682, “Ligand-Directed Self-Assembling Chimeras for Targeted Protein O‑GlcNAcylation” (ACS Chemical Biology, 2025)

Legend:
[1] = target: T1, O-GlcNAc transferase (OGT) (Homo sapiens, UniProt O15294); assay: SPR steady-state affinity on immobilized OGT; also in-gel covalent labelling of purified OGT, competed by OSMI-4; type: binding
T1 sequence (O15294 2-1046): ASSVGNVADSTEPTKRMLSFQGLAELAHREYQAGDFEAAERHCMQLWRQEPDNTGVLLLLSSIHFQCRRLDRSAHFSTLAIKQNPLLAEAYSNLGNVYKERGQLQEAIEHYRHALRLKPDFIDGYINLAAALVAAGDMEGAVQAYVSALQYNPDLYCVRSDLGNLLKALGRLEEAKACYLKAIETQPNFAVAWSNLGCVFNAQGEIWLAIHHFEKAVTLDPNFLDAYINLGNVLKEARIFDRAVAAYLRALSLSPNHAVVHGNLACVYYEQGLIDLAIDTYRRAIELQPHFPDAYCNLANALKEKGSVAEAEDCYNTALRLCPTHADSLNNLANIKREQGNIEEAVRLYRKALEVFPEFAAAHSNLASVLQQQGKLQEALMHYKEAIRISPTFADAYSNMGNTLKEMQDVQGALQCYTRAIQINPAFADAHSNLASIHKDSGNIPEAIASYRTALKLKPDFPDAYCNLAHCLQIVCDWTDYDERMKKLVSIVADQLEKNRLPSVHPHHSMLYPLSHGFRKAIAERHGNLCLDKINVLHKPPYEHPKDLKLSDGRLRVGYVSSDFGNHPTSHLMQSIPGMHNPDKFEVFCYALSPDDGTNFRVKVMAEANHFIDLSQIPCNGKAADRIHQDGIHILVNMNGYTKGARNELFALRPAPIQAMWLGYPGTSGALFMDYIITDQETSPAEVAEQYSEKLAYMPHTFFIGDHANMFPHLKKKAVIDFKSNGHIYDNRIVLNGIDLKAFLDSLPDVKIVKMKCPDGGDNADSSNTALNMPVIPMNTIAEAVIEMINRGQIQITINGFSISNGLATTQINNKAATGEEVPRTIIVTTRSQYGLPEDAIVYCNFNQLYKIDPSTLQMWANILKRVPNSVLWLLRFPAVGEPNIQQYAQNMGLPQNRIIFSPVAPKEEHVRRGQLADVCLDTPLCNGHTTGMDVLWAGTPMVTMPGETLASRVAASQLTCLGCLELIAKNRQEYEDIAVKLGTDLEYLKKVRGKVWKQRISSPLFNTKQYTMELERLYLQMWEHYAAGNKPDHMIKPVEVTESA

[2] = target: T1, O-GlcNAc transferase (OGT); assay: SPR, confirmed by MST; also in-gel covalent labelling of purified OGT, competed by OSMI-4; type: binding

Q: For `C#CCCCCC(=O)N(CC#N)S(=O)(=O)c1cc2ccc(=O)[nH]c2cc1Cl` [7a], which Kd [1] is on record?
A: Its Kd is 2 µM.

Q: `C#CCCCCC(=O)N(CC#N)S(=O)(=O)c1ccc2[nH]c(=O)ccc2c1` [8a] was tested. Which Kd [2] did it give?
A: The Kd was 28.3 µM.
